# Test results reported in patent US8106091B2, “Inhibitors of IKK-beta serine-threonine protein kinase” (Chroma Therapeutics Ltd., priority 2006, dated 2012).
# How the values were obtained:
# human whole blood = experiment: LPS-stimulation of human whole blood, TNF-α release; type: cell-based; conditions: LPS 100 ng/ml, 6 hrs, inhibitor added 2 hrs before, read-out: Inhibitor activity versus human whole blood TNFα release
# Protocol: LPS-Stimulation of Human Whole Blood
# Whole blood was taken by venous puncture using heparinised vacutainers (Becton Dickinson) and diluted in an equal volume of RPMI1640 tissue culture media (Sigma). 100 μl was plated in V-bottomed 96 well tissue culture treated plates. 2 hrs after the addition of the inhibitor in 100 μl of RPMI1640 media, the blood was stimulated with LPS (E coli strain 005:B5, Sigma) at a final concentration of 100 ng/ml and incubated at 37° C. in 5% CO2 for 6 hrs. TNF-α levels were measured from cell-free supernatants by sandwich ELISA (R&D Systems #QTA00B)
# IKBKB (IKKβ) = biological target: T1, IKBKB (IKKβ) (Homo sapiens, UniProt O14920); experiment: IKKβ enzyme assay (Z'-LYTE, Invitrogen); type: biochemical; conditions: ATP at or close to Km; read-out: Inhibitor activity versus IKKβ
# T1 construct: purchased Invitrogen (Paisley, UK)
# T1 sequence (O14920 1-756): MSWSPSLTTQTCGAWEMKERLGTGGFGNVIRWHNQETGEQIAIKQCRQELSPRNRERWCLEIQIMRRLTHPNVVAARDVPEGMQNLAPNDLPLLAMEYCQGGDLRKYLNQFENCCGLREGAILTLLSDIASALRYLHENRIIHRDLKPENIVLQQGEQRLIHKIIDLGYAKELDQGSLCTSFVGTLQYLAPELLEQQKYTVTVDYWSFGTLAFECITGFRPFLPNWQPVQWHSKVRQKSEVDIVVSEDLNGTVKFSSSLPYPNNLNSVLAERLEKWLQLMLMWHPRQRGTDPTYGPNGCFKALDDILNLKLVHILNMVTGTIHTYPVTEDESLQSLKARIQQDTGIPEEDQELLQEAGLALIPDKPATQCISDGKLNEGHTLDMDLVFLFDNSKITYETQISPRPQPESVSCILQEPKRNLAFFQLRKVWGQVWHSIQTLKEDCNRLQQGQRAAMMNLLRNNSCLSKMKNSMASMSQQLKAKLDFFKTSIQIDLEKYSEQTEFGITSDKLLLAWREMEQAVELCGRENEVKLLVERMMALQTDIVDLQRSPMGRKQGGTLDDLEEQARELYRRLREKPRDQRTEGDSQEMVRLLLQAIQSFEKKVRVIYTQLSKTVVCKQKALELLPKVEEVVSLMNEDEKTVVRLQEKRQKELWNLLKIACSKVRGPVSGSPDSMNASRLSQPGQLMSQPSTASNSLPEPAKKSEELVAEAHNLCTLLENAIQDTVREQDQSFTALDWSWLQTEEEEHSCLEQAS
# Protocol: The ability of compounds to inhibit IKKβ kinase activity was measured in an assay performed by Invitrogen (Paisley, UK). The Z′-LYTE™ biochemical assay employs a fluorescence-based, coupled-enzyme format and is based on the differential sensitivity of phosphorylated and non-phosphorylated peptides to proteolytic cleavage. The peptide substrate is labelled with two fluorophores—one at each end—that make up a FRET pair. In the primary reaction, the kinase transfers the gamma-phosphate of ATP to a single serine or threonine residue in a synthetic FRET-peptide. In the secondary reaction, a site-specific protease recognizes and cleaves non-phosphorylated FRET-peptides. Phosphorylation of FRET-peptides suppresses cleavage by the Development Reagent. Cleavage disrupts FRET between the donor (i.e., coumarin) and acceptor (i.e. fluorescein) fluorophores on the FRET-peptide, whereas uncleaved, phosphorylated FRET-peptides maintain FRET. A […] method, which calculates the ratio (the Emission Ratio) of donor emission to acceptor emission after excitation of the donor fluorophore at 400 nm, is used to quantitate reaction progress.
# The final 10 μL Kinase Reaction consists of 0.9-8.0 ng IKBKB (IKKβ), 2 μM Ser/Thr 05 Peptide and ATP in 50 mM HEPES pH 7.5, 0.01% BRIJ-35, 10 mM MgCl2, 1 mM EGTA. The assay is performed at an ATP concentration at, or close to the Km. After the 60 minute Kinase Reaction incubation at room temperature, 5 μL of a 1:128 dilution of Development Reagent is added. The assay plate is incubated for a further 60 minutes at room temperature and read on a fluorescence plate reader.
# Duplicate data points are generated from a ⅓ log dilution series of a stock solution of test compound in DMSO. Nine dilutions steps are made from a top concentration of 10 μM, and a ‘no compound’ blank is included. Data is collected and analysed using XLfit software from IDBS. The dose response curve is curve fitted to model number 205 (sigmoidal dose-response model). From the curve generated, the concentration giving 50% inhibition is determined and reported.
# THP-1 cells = experiment: LPS-stimulation of THP-1 cells, TNF-α release; type: cell-based; conditions: Homo sapiens, LPS 1 μg/ml, 6 hrs, inhibitor added 2 hrs before, read-out: Inhibitor activity versus THP-1 TNFα release
# Protocol: LPS-Stimulation of THP-1 Cells
# THP-1 cells were plated in 100 μl at a density of 4×10^4 cells/well in V-bottomed 96 well tissue culture treated plates and incubated at 37° C. in 5% CO2 for 16 hrs. 2 hrs after the addition of the inhibitor in 100 μl of tissue culture media, the cells were stimulated with LPS (E coli strain 005:B5, Sigma) at a final concentration of 1 μg/ml and incubated at 37° C. in 5% CO2 for 6 hrs. TNF-α levels were measured from cell-free supernatants by sandwich ELISA (R&D Systems #QTA00B)
smiles,measurement,setting,value
"NC(=O)Nc1sc(-c2ccc(OCC[C@@H](N)C(=O)OC3CCCC3)cc2)cc1C(N)=O [Example 1, Cyclopentyl O-{4-[4-carbamoyl-5-(carbamoylamino)-2-thienyl]phenyl}-D-homoserinate]",IC50,human whole blood,1000 to 5000 nM
same,IC50,IKBKB (IKKβ),< 1000 nM
same,IC50,THP-1 cells,< 1000 nM
"NC(=O)Nc1sc(-c2ccc(OCCC[C@H](N)C(=O)OC3CCCC3)cc2)cc1C(N)=O [Example 3, Cyclopentyl 5-{4-[4-carbamoyl-5-(carbamoylamino)-2-thienyl]phenoxy}-L-norvalinate]",IC50,human whole blood,> 5000 nM
same,IC50,IKBKB (IKKβ),< 1000 nM
same,IC50,THP-1 cells,1000 to 5000 nM
"Cc1cc(OCC[C@H](N)C(=O)OC2CCCC2)ccc1-c1cc(C(N)=O)c(NC(N)=O)s1 [Example 5, Cyclopentyl O-{4-[4-carbamoyl-5-(carbamoylamino)-2-thienyl]-3-methylphenyl}-L-homoserinate]",IC50,human whole blood,> 5000 nM
same,IC50,IKBKB (IKKβ),< 1000 nM
same,IC50,THP-1 cells,< 1000 nM
"Cc1cc(-c2cc(C(N)=O)c(NC(N)=O)s2)ccc1OCC[C@H](N)C(=O)OC1CCCC1 [Example 6, Cyclopentyl O-{4-[4-carbamoyl-5-(carbamoylamino)-2-thienyl]-2-methylphenyl}-L-homoserinate]",IC50,human whole blood,> 5000 nM
same,IC50,IKBKB (IKKβ),< 1000 nM
same,IC50,THP-1 cells,< 1000 nM
"NC(=O)Nc1sc(-c2ccc(OCC[C@H](N)C(=O)OC3CCCC3)cc2Cl)cc1C(N)=O [Example 7, Cyclopentyl O-{4-[4-carbamoyl-5-(carbamoylamino)-2-thienyl]-3-chlorophenyl}-L-homoserinate]",IC50,human whole blood,> 5000 nM
same,IC50,IKBKB (IKKβ),< 1000 nM
same,IC50,THP-1 cells,< 1000 nM
"NC(=O)Nc1sc(-c2ccc(OCC[C@H](N)C(=O)OC3CCCC3)c(Cl)c2)cc1C(N)=O [Example 8, Cyclopentyl O-{4-[4-carbamoyl-5-(carbamoylamino)-2-thienyl]-2-chlorolphenyl}-L-homoserinate]",IC50,human whole blood,> 5000 nM
same,IC50,IKBKB (IKKβ),< 1000 nM
same,IC50,THP-1 cells,1000 to 5000 nM
"NC(=O)Nc1sc(-c2ccc(/C=C/C[C@H](N)C(=O)OC3CCCC3)cc2)cc1C(N)=O [Example 9, Cyclopentyl (2S,4E)-2-amino-5-{4-[4-carbamoyl-5-(carbamoylamino)-2-thienyl]phenyl}pent-4-enoate]",IC50,human whole blood,< 1000 nM
same,IC50,IKBKB (IKKβ),< 1000 nM
same,IC50,THP-1 cells,< 1000 nM
"NC(=O)Nc1sc(-c2ccc(/C=C/C[C@@H](N)C(=O)OC3CCCC3)cc2)cc1C(N)=O [Example 10, Cyclopentyl (2R,4E)-2-amino-5-{4-[4-carbamoyl-5-(carbamoylamino)-2-thienyl]phenyl}pent-4-enoate]",IC50,human whole blood,< 1000 nM
same,IC50,IKBKB (IKKβ),< 1000 nM
same,IC50,THP-1 cells,< 1000 nM
"NC(=O)Nc1sc(-c2ccc(CCC[C@H](N)C(=O)OC3CCCC3)cc2)cc1C(N)=O [Example 11, Cyclopentyl 5-{4-[4-carbamoyl-5-(carbamoylamino)-2-thienyl]phenyl}-L-norvalinate]",IC50,human whole blood,1000 to 5000 nM
same,IC50,IKBKB (IKKβ),< 1000 nM
same,IC50,THP-1 cells,< 1000 nM
"NC(=O)Nc1sc(-c2ccc(/C=C/C[C@H](N)C(=O)OC3CCCC3)cc2Cl)cc1C(N)=O [Example 13, Cyclopentyl (2S,4E)-2-amino-5-{4-[4-carbamoyl-5-(carbamoylamino)-2-thienyl]-3-chlorophenyl}pent-4-enoate]",IC50,human whole blood,1000 to 5000 nM
same,IC50,IKBKB (IKKβ),< 1000 nM
same,IC50,THP-1 cells,< 1000 nM
"Cc1cc(-c2cc(C(N)=O)c(NC(N)=O)s2)ccc1/C=C/C[C@H](N)C(=O)OC1CCCC1 [Example 14, Cyclopentyl (2S,4E)-2-amino-5-{4-[4-carbamoyl-5-(carbamoylamino)-2-thienyl]-2-methylphenyl}pent-4-enoate]",IC50,human whole blood,< 1000 nM
same,IC50,IKBKB (IKKβ),< 1000 nM
same,IC50,THP-1 cells,< 1000 nM
"NC(=O)Nc1sc(-c2ccc(C#CC[C@H](N)C(=O)OC3CCCC3)cc2)cc1C(N)=O [Example 15, Cyclopentyl (2S)-2-amino-5-{4-[4-carbamoyl-5-(carbamoylamino)-2-thienyl]phenyl}pent-4-ynoate]",IC50,human whole blood,> 5000 nM
same,IC50,IKBKB (IKKβ),< 1000 nM
same,IC50,THP-1 cells,1000 to 5000 nM
"NC(=O)Nc1sc(-c2ccc(C[C@H](N)C(=O)OC3CCCC3)cc2)cc1C(N)=O [Example 16, Cyclopentyl 4-[4-carbamoyl-5-(carbamoylamino)-2-thienyl]-L-phenylalaninate]",IC50,human whole blood,1000 to 5000 nM
same,IC50,IKBKB (IKKβ),< 1000 nM
same,IC50,THP-1 cells,< 1000 nM
"NC(=O)Nc1sc(-c2ccc(/C=C\C[C@H](N)C(=O)OC3CCCC3)cc2)cc1C(N)=O [Example 18, Cyclopentyl (2S,4Z)-2-amino-5-{4-[4-carbamoyl-5-(carbamoylamino)-2-thienyl]phenyl}pent-4-enoate]",IC50,human whole blood,1000 to 5000 nM
same,IC50,IKBKB (IKKβ),< 1000 nM
same,IC50,THP-1 cells,1000 to 5000 nM
"NC(=O)Nc1sc(-c2ccc(N(CC[C@H](N)C(=O)OC3CCCC3)Cc3ccccc3)cc2)cc1C(N)=O [Example 21, Cyclopentyl (2S)-2-amino-4-(benzyl{4-[4-carbamoyl-5-(carbamoylamino)thiophen-2-yl]phenyl}amino)butanoate]",IC50,IKBKB (IKKβ),< 1000 nM
same,IC50,THP-1 cells,1000 to 5000 nM
"NC(=O)Nc1cc(-c2ccc(OCC[C@H](N)C(=O)OC3CCCC3)cc2)sc1C(N)=O [Example 23, Cyclopentyl O-{4-[5-carbamoyl-4-(carbamoylamino)-2-thienyl]phenyl}-L-homoserinate]",IC50,IKBKB (IKKβ),< 1000 nM
same,IC50,THP-1 cells,1000 to 5000 nM
"NC(=O)Nc1cc(-c2ccc(C[C@H](N)C(=O)OC3CCCC3)cc2)sc1C(N)=O [Example 24, Cyclopentyl 4-[5-carbamoyl-4-(carbamoylamino)-2-thienyl]-L-phenylalaninate]",IC50,IKBKB (IKKβ),< 1000 nM
same,IC50,THP-1 cells,> 5000 nM
